For assay [1], the system named is isolated rabbit heart. In words: reversal of sustained electrically induced ventricular fibrillation, isolated rabbit heart (Langendorff preparation). The note with it: added to perfusate.
Description: The thorax was rapidly opened by middle-sized incision, and the sternum beaten back for complete exposure of the inside of the thorax. […] A metallic cannula was then inserted and fixed to the proximal portion of the aorta, retrograde perfusion of oxygenated Krebs-Henseleit solution was initiated and heated up to 37° C. with constant flow of 13 mL/minute, kept by a continuous-infusion pump, Harvard Apparatus model RS232. The cannula tip was positioned quite close to the aortic valve to permit adequate coronary perfusion.
The heart was then removed and suspended through the cannula in a classic Langenhorff preparation. The Krebs Henseleit composition used was: 115 mM NaCl; 5.4 mM KCL; 1.25 mM CaCl2; 25 mM NaHCO3; 1.2 mM MgSO4; 1.5 mM NaH2PO4 and 11 nM glucose. […]
Assay [2] concerns isolated rabbit heart. In words: re-induction of ventricular fibrillation after reversal (protective effect), isolated rabbit heart. The note with it: new attempt to induce ventricular fibrillation 5 minutes after reversal. The procedure:
In order to carry out the experiments, twenty-seven male and female white New Zealand rabbits, weighing 2.5-3.5 kg, received 100 Ul/kg of intravenous heparin and were killed by cervical displacement.
The thorax was rapidly opened by middle-sized incision, and the sternum beaten back for complete exposure of the inside of the thorax. The pericardium was removed and the rising part of the aorta was isolated and repaired with a cotton thread 3-0. A metallic cannula was then inserted and fixed to the proximal portion of the aorta, retrograde perfusion of oxygenated Krebs-Henseleit solution was initiated and heated up to 37° C. with constant flow of 13 mL/minute, kept by a continuous-infusion pump, Harvard Apparatus model RS232. The cannula tip was positioned quite close to the aortic valve to permit adequate coronary perfusion.
The heart was then removed and suspended through the cannula in a classic Langenhorff preparation. […]
Two pairs of electrodes (Monicron 2-O) were saturated on the LV: one at the tip, called proximal (P) and the other at the branching of front descending coronary artery branching with the first diagonal, called distal (D). […] The cardiac frequency was determined by measuring the interval between two consecutive electrograms and transformed into beats per minute (bpm). […]

Molecules are shown by their SMILES.

Regarding `CCCCc1oc2ccccc2c1C(=O)c1cc(I)c(OCCN(CC)CC)c(I)c1` [amiodarone], in the assay with isolated rabbit heart [1], the “reversal of sustained ventricular fibrillation (in words)” value is on record as “do not have any effect”.

For `CCN(CC)CC(=O)Nc1c(C)cccc1C` [lidocain], in the assay on isolated rabbit heart [2], the “prevention of re-induction of ventricular fibrillation by electric stimulus” value is “does not prevent the reinduction”.

`CC(C)NCC(O)COc1cccc2ccccc12` (stereo not drawn) [propranolol]: the “reversal of sustained ventricular fibrillation (in words)” value with isolated rabbit heart [1] is reported as “do not have any effect”.

For the origin of these results see patent US20130217761A1 (Laboratorio Catarinense S/A, priority 2009, published 2013).
